Results reported in ChEMBL document CHEMBL5260845, “Flavone-based arylamides as potential anticancers: Design, synthesis and in vitro cell-based/cell-free evaluations” (2020).
The source made the active and inactive calls. No cut-off for these calls is given here.

Columns and labels:
[1] = system: ACHN; assay: Antiproliferative activity against human ACHN cells assessed as inhibition of cell growth at 10 uM by SRB assay relative to control; format: functional; details: pooled result: one value given for 2 cell lines, strains, targets or settings
[2] = system: COLO 205; assay: Antiproliferative activity against human COLO 205 cells assessed as cell growth inhibition at 10 uM by SRB assay; format: functional, cell-based
[3] = system: UACC-62; assay: Antiproliferative activity against human UACC-62 cells assessed as cell growth inhibition at 10 uM by SRB assay relative to control; format: functional
[4] = system: OVCAR-8; assay: Antiproliferative activity against human OVCAR-8 cells assessed as cell growth inhibition at 10 uM by SRB assay relative to control; format: functional
[5] = system: RXF 393; assay: Antiproliferative activity against human RXF 393 cells assessed as inhibition of cell growth at 10 uM by SRB assay relative to control; format: functional
[6] = system: Hs-578T; assay: Antiproliferative activity against human Hs-578T cells assessed as inhibition of cell growth at 10 uM by SRB assay relative to control; format: functional
[7] = system: NCI-H460; assay: Antiproliferative activity against human NCI-H460 cells assessed as cell growth inhibition at 10 uM by SRB assay relative to control; format: functional
[8] = Antiproliferative activity against human brain cancer cells assessed as cell growth inhibition at 10 uM by SRB assay relative to control; format: functional
[9] = system: SNB-19; assay: Antiproliferative activity against temozolomide resistant human SNB-19 cells assessed as cell growth inhibition at 10 uM by SRB assay; format: functional, cell-based
[10] = system: HT-29; assay: Antiproliferative activity against human HT-29 cells assessed as cell growth inhibition at 10 uM by SRB assay; format: functional, cell-based
[11] = system: 786-0; assay: Antiproliferative activity against human 786-0 cells assessed as inhibition of cell growth at 10 uM by SRB assay relative to control; format: functional
[12] = system: Lung cancer cell line; assay: Antiproliferative activity against human lung cancer cells assessed as cell growth inhibition at 10 uM by SRB assay relative to control; format: functional
[13] = system: KM12; assay: Antiproliferative activity against human KM12 cells assessed as cell growth inhibition at 10 uM by SRB assay; format: functional, cell-based
[14] = system: Renal cancer cell line; assay: Antiproliferative activity against human renal cancer cells assessed as cell growth inhibition at 10 uM by SRB assay relative to control; format: functional
[15] = system: HCT-15; assay: Antiproliferative activity against human HCT-15 cells assessed as cell growth inhibition at 10 uM by SRB assay; format: functional, cell-based
[16] = system: HCC 2998; assay: Antiproliferative activity against human HCC 2998 cells assessed as cell growth inhibition at 10 uM by SRB assay; format: functional, cell-based
[17] = system: Breast carcinoma cell; assay: Antiproliferative activity against human breast cancer cells assessed as cell growth inhibition at 10 uM by SRB assay relative to control; format: functional; details: pooled result: one value given for 3 cell lines, strains, targets or settings
[18] = system: OVCAR-4; assay: Antiproliferative activity against human OVCAR-4 cells assessed as cell growth inhibition at 10 uM by SRB assay relative to control; format: functional
[19] = system: SW-620; assay: Antiproliferative activity against human SW620 cells assessed as cell growth inhibition at 10 uM by SRB assay; format: functional, cell-based
[20] = system: HCT-116; assay: Antiproliferative activity against human HCT-116 cells assessed as cell growth inhibition at 10 uM by SRB assay; format: functional, cell-based
[21] = system: RPMI-8226; assay: Antiproliferative activity against human RPMI-8226 cells assessed as cell growth inhibition at 10 uM by SRB assay relative to control; format: functional
[22] = system: SN12C; assay: Antiproliferative activity against human SN12C cells assessed as inhibition of cell growth at 10 uM by SRB assay relative to control; format: functional
[23] = system: NCI-H322M; assay: Antiproliferative activity against human NCI-H322M cells assessed as cell growth inhibition at 10 uM by SRB assay; format: functional, cell-based
[24] = system: MOLT-4; assay: Antiproliferative activity against human MOLT-4 cells assessed as cell growth inhibition at 10 uM by SRB assay; format: functional, cell-based
[25] = system: CCRF-CEM; assay: Antiproliferative activity against human CCRF-CEM cells assessed as cell growth inhibition at 10 uM by SRB assay; format: functional, cell-based
[26] = system: SK-MEL-2; assay: Antiproliferative activity against human SK-MEL-2 cells assessed as cell growth inhibition at 10 uM by SRB assay relative to control; format: functional
[27] = system: HOP-92; assay: Antiproliferative activity against human HOP-92 cells assessed as cell growth inhibition at 10 uM by SRB assay; format: functional, cell-based
[28] = system: NCI-H460; assay: Antiproliferative activity against human NCI-H460 cells assessed as cell growth inhibition at 10 uM by SRB assay; format: functional, cell-based
[29] = system: NCI-H226; assay: Antiproliferative activity against human NCI-H226 cells assessed as cell growth inhibition at 10 uM by SRB assay; format: functional
[30] = system: Malme-3M; assay: Antiproliferative activity against human Malme-3M cells assessed as cell growth inhibition at 10 uM by SRB assay relative to control; format: functional
[31] = system: HCT-116; assay: Antiproliferative activity against human HCT-116 cells assessed as cell growth inhibition at 10 uM by SRB assay relative to control; format: functional
[32] = system: SK-MEL-28; assay: Antiproliferative activity against human SK-MEL-28 cells assessed as cell growth inhibition at 10 uM by SRB assay relative to control; format: functional
[33] = system: NCI-H23; assay: Antiproliferative activity against human NCI-H23 cells assessed as cell growth inhibition at 10 uM by SRB assay; format: functional
[34] = system: SF-295; assay: Antiproliferative activity against human SF-295 cells assessed as cell growth inhibition at 10 uM by SRB assay relative to control; format: functional
[35] = system: OVCAR-3; assay: Antiproliferative activity against human OVCAR-3 cells assessed as cell growth inhibition at 10 uM by SRB assay relative to control; format: functional; details: pooled result: one value given for 2 cell lines, strains, targets or settings
[36] = system: SF-268; assay: Antiproliferative activity against human SF-268 cells assessed as cell growth inhibition at 10 uM by SRB assay relative to control; format: functional
[37] = system: NCI-H522; assay: Antiproliferative activity against human NCI-H522 cells assessed as cell growth inhibition at 10 uM by SRB assay; format: functional, cell-based
[38] = system: SNB-19; assay: Antiproliferative activity against human SNB-19 cells assessed as cell growth inhibition at 10 uM by SRB assay relative to control; format: functional
[39] = system: DU-145; assay: Antiproliferative activity against human DU-145 cells assessed as inhibition of cell growth at 10 uM by SRB assay relative to control; format: functional
[40] = system: SF-539; assay: Antiproliferative activity against human SF-539 cells assessed as cell growth inhibition at 10 uM by SRB assay relative to control; format: functional
[41] = system: SNB-75; assay: Antiproliferative activity against human SNB-75 cells assessed as cell growth inhibition at 10 uM by SRB assay relative to control; format: functional
[42] = system: MDA-MB-435; assay: Antiproliferative activity against human MDA-MB-435 cells assessed as cell growth inhibition at 10 uM by SRB assay relative to control; format: functional
[43] = system: RPMI-8226; assay: Antiproliferative activity against human RPMI-8226 cells assessed as cell growth inhibition at 10 uM by SRB assay; format: functional, cell-based
[44] = system: SK-MEL-5; assay: Antiproliferative activity against human SK-MEL-5 cells assessed as cell growth inhibition at 10 uM by SRB assay relative to control; format: functional
[45] = system: A498; assay: Antiproliferative activity against human A498 cells assessed as inhibition of cell growth at 10 uM by SRB assay relative to control; format: functional
[46] = system: SF-295; assay: Antiproliferative activity against human SF-295 cells assessed as cell growth inhibition at 10 uM by SRB assay; format: functional, cell-based
[47] = system: LOX IMVI; assay: Antiproliferative activity against human LOX IMVI cells assessed as cell growth inhibition at 10 uM by SRB assay relative to control; format: functional
[48] = system: U-251; assay: Antiproliferative activity against human U-251 cells assessed as cell growth inhibition at 10 uM by SRB assay relative to control; format: functional
[49] = system: HOP-62; assay: Antiproliferative activity against human HOP-62 cells assessed as cell growth inhibition at 10 uM by SRB assay; format: functional, cell-based
[50] = system: K562; assay: Antiproliferative activity against human K562 cells assessed as cell growth inhibition at 10 uM by SRB assay; format: functional, cell-based
[51] = system: UACC-257; assay: Antiproliferative activity against human UACC-257 cells assessed as cell growth inhibition at 10 uM by SRB assay relative to control; format: functional
[52] = system: M14; assay: Antiproliferative activity against human M14 cells assessed as cell growth inhibition at 10 uM by SRB assay relative to control; format: functional
[53] = system: HL-60; assay: Antiproliferative activity against human HL-60 cells assessed as cell growth inhibition at 10 uM by SRB assay; format: functional, cell-based
[54] = system: EKVX; assay: Antiproliferative activity against human EKVX cells assessed as cell growth inhibition at 10 uM by SRB assay; format: functional
[55] = system: SR; assay: Antiproliferative activity against human SR cells assessed as cell growth inhibition at 10 uM by SRB assay; format: functional, cell-based
[56] = system: IGROV-1; assay: Antiproliferative activity against human IGROV-1 cells assessed as cell growth inhibition at 10 uM by SRB assay relative to control; format: functional
[57] = system: A549; assay: Antiproliferative activity against human A549 cells assessed as cell growth inhibition at 10 uM by SRB assay; format: functional, cell-based
[58] = system: MDA-MB-231; assay: Antiproliferative activity against human MDA-MB-231 cells assessed as inhibition of cell growth at 10 uM by SRB assay relative to control; format: functional
[59] = system: BT-549; assay: Antiproliferative activity against triple negative human BT-549 cells assessed as inhibition of cell growth at 10 uM by SRB assay relative to control; format: functional
[60] = system: T47D; assay: Antiproliferative activity against human T47D cells assessed as inhibition of cell growth at 10 uM by SRB assay relative to control; format: functional
[61] = system: MCF7; assay: Antiproliferative activity against estrogen receptor positive human MCF7 cells assessed as inhibition of cell growth at 10 uM by SRB assay relative to control; format: functional

COc1cc2oc(-c3cccc(C(=O)Nc4ccc(Cl)cc4)c3)cc(=O)c2c(O)c1OC
inhibition at 10 µM [1]: 53% | inhibition [2]: Active | inhibition at 10 µM [3]: 57.3% | inhibition at 10 µM [4]: 83.7% | inhibition at 10 µM [5]: 53% | inhibition at 10 µM [6]: 93.3% | inhibition at 10 µM [7]: 79.5% | inhibition at 10 µM [8]: > 50% | inhibition [9]: Active | inhibition [10]: Active | inhibition at 10 µM [11]: 53% | inhibition at 10 µM [12]: > 50% | inhibition [13]: Active | inhibition at 10 µM [14]: > 50% | inhibition [15]: Active | inhibition [16]: Active | inhibition at 10 µM [17]: > 50% | inhibition at 10 µM [18]: 130% | inhibition [19]: Active | inhibition [20]: Active | inhibition at 10 µM [21]: 82.6% | inhibition at 10 µM [22]: 53%

COc1cc2oc(-c3cccc(NC(=O)c4ccc(Br)cc4)c3)cc(=O)c2c(OC)c1OC
inhibition at 10 µM [1]: 63.6% | inhibition at 10 µM [3]: 39.1% | inhibition at 10 µM [4]: 52.9% | inhibition at 10 µM [5]: 63.6% | inhibition at 10 µM [6]: 73.4% | inhibition [23]: Active | inhibition [24]: Active | inhibition [25]: Active | inhibition at 10 µM ([26]; Homo sapiens, SK-MEL-2, dose 10 µM): ≤ 46% | inhibition (INH) ([26]; dose 10 µM): 39.07% | inhibition [27]: Active | inhibition [28]: Active | inhibition [29]: Active | inhibition at 10 µM [29]: < 50% | inhibition at 10 µM [30]: 39.1% | inhibition at 10 µM [31]: 84% | inhibition at 10 µM [32]: 50.8% | inhibition [33]: Active | inhibition at 10 µM [33]: < 50% | inhibition at 10 µM [34]: > 50% | inhibition at 10 µM [35]: 52.9% | inhibition at 10 µM [36]: > 50% | inhibition [37]: Active | inhibition at 10 µM [38]: 41.2% | inhibition at 10 µM [11]: 84% | inhibition at 10 µM [39]: > 50% | inhibition at 10 µM [40]: 47.1% | inhibition at 10 µM [41]: > 50% | inhibition at 10 µM [42]: 50.8% | inhibition [43]: Active | inhibition at 10 µM [44]: 50.8% | inhibition at 10 µM [45]: 63.6% | inhibition [46]: Active | inhibition at 10 µM [47]: 50.8% | inhibition at 10 µM [48]: > 50% | inhibition [49]: Active | inhibition [50]: Active | inhibition at 10 µM [18]: 52.9% | inhibition at 10 µM [51]: 39.1% | inhibition at 10 µM [52]: 50.8% | inhibition [53]: Active | inhibition [54]: Active | inhibition at 10 µM [54]: < 50% | inhibition [55]: Active | inhibition at 10 µM [56]: 52.9% | inhibition [57]: Active | inhibition at 10 µM [58]: 73.4% | inhibition at 10 µM [22]: 63.6%

CN(Cc1cnc2nc(N)nc(N)c2n1)c1ccc(C(=O)N[C@@H](CCC(=O)O)C(=O)O)cc1 [METHOTREXATE]
inhibition at 10 µM [59]: 53.1% | inhibition at 10 µM [60]: 53.8% | inhibition at 10 µM [61]: 82.8% | inhibition at 10 µM [58]: 40.1%
